Reference: US20150005288A1, “SUBSTITUTED PHENYLIMIDAZOPYRAZOLES AND USE THEREOF” (Bayer Intellectual Property GmbH, priority 2012, published 2015)
pIC50: −log10 of the molar value.

Assays:
endogenous Tie2 receptor = biological target: T1, endogenous Tie2 receptor (Homo sapiens, UniProt Q02763); assay: Tie2-pTyr-ELISA: autophosphorylation of endogenous Tie2 receptor in HUVEC; format: cell-based; conditions: autophosphorylation elevated by sodium orthovanadate (4 mM), Tie2/phosphotyrosine sandwich ELISA, from 2-7 independent measurements
T1 construct: the endogenous Tie2 receptor; host or cells: HUVEC (human umbilical vein endothelial cells)
Experimental: The cellular activity of the compounds according to the invention as Tie2 kinase inhibitors was determined in human endothelial cells (HUVEC) by measuring the inhibition of the autophosphorylation, elevated by treatment with sodium orthovanadate, of the endogenous Tie2 receptor by means of a Tie2/phosphotyrosine sandwich ELISA.
Human endothelial cells (human umbilical vein endothelial cells, HUVEC) were obtained from Cellsystems (FC-0003), cultured in Vasculife VEGF complete medium (Cellsystems, LL-1020) with 2% foetal calf serum (FCS) at 37° C./5% CO2 and used for Tie2-ELISA measurements up to passage 8.
HUVEC were plated in a culture volume of 100 μl of Vasculife VEGF complete medium at a cell density of 30 000 cells per well in transparent collagen-coated 96-well cell culture plates (Falcon, #353075) and incubated in an incubation cabinet at 37° C./5% CO2 overnight. The test substances dissolved in DMSO were used to prepare in each case one dilution series in Vasculife VEGF low-serum medium [basal medium with LifeFactors (Cellsystems, LM-0002), without FCS, with 0.1% BSA] without sodium orthovanadate and one dilution series in Vasculife VEGF low-serum-medium with 8 mM sodium orthovanadate in the desired concentrations in the range from 10 pM to 10 μM, the final DMSO concentration being 1%. After removal of the complete medium, 100 μl per well of the dilute substances in low-serum medium without sodium orthovanadate were pipetted onto the cells, and the plates were incubated in an incubation cabinet at 37° C./5% CO2 for 10 min. A further 100 μl of the same substance dilution in low-serum medium with 8 mM sodium orthovanadate were then pipetted into the respective well and the cells were incubated in a volume of now 200 μl in the presence of 4 mM sodium orthovanadate at the desired substance concentration in an incubation cabinet at 37° C./5% CO2 for a further 20 min. The cell supernatant of the plates was then removed and the cells were washed once with 250 μl per well of cold PBS which contained 4 mM sodium orthovanadate. 120 μl of Duschl lysis buffer [50 mM HEPES pH 7.2, 150 mM NaCl, 1 mM MgCl2, 10% glycerol, 1.5% Triton X-100, 4 mM sodium orthovanadate, 250 μl S-PIC phosphatase inhibitor cocktail 2 (Sigma, P5726) and 1 tablet of Complete proteinase inhibitor mixture (Roche, #1836145) per 10 ml] were then added to the cells in each well. The plates were shaken briefly and then incubated on ice for 20 min, and the lysates in the cell culture plates were then frozen at −80° C. for at least 30 min.
For measuring the autophosphorylation of the endogenous Tie2 receptor in the cell lysates prepared, a self-prepared anti-Tie2 antibody directed against the N-terminus of the Tie-2 receptor (1.09 mg/ml) and an HRP-coupled anti-phosphotyrosine antibody (Sigma, A4595, clone pY-20) were used. White 96-well ELISA plates (Lumitrac600, Greiner, #655074) were incubated with 100 μl per well of a 1:1000 dilution of the anti-Tie2 antibody in coating buffer [15 mM Na2CO3, 35 mM NaHCO3, pH 9.6] with shaking at 4° C. overnight. The coated ELISA plates were washed three times with 250 μl PBST buffer [0.1% Tween-20 in PBS], the wells were blocked with 250 μl 3% BSA in PBST buffer with shaking at RT for 1-6 h and washed three more times with 250 μl PBST buffer. From the cell lysate plates thawed in the fridge, in each case 100 μl of lysate were transferred into the coated wells of the ELISA plates, and the plates were incubated with shaking at 4° C. overnight. The plates were washed three times with in each case 250 μl of PBST buffer, and 100 μl of a 1:5000 dilution of the anti-phosphotyrosine HRP antibody in 3% Prionex (Calbiochem, #529600) in PBST were then pipetted into each well and the plates were incubated with shaking and protected from light at 4° C. overnight. […]

[1] = biological target: T2, intracellular domain of human Tie2 (GST fusion protein) (Homo sapiens, UniProt Q02763); assay: Tie2 kinase assay (Tie2-TR-FRET); format: biochemical; conditions: ATP concentration 1 mM, in some cases means of several independent determinations
T2 construct: intracellular domain of human Tie2 (amino acids 776-1124); made in house; host or cells: Baculovirus-infected insect cells (Hi5)
In short: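 High ATP (1 mM final) with 1 μM biotin-peptide substrate; reaction 60 min at 22 °C after 15 min compound pre-binding to GST-Tie2 (aa 776-1124) in HEPES pH 7 with Mg/Mn. Phosphopeptide detected by TR-FRET emission ratio 665/620 nm. IC50 from 4-parameter fit over 20 μM to 0.073 nM, duplicates.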

T2 sequence (Q02763 776-1124): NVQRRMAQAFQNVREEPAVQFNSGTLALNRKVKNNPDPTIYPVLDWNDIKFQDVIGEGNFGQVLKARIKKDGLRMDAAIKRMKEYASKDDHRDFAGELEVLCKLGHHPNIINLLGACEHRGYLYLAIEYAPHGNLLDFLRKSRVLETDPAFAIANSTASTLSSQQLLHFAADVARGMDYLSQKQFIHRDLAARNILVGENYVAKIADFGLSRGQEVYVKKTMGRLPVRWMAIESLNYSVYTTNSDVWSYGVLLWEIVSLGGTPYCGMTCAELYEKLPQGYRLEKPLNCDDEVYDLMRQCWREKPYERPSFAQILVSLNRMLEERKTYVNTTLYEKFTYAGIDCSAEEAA
T1 sequence (Q02763 23-1124): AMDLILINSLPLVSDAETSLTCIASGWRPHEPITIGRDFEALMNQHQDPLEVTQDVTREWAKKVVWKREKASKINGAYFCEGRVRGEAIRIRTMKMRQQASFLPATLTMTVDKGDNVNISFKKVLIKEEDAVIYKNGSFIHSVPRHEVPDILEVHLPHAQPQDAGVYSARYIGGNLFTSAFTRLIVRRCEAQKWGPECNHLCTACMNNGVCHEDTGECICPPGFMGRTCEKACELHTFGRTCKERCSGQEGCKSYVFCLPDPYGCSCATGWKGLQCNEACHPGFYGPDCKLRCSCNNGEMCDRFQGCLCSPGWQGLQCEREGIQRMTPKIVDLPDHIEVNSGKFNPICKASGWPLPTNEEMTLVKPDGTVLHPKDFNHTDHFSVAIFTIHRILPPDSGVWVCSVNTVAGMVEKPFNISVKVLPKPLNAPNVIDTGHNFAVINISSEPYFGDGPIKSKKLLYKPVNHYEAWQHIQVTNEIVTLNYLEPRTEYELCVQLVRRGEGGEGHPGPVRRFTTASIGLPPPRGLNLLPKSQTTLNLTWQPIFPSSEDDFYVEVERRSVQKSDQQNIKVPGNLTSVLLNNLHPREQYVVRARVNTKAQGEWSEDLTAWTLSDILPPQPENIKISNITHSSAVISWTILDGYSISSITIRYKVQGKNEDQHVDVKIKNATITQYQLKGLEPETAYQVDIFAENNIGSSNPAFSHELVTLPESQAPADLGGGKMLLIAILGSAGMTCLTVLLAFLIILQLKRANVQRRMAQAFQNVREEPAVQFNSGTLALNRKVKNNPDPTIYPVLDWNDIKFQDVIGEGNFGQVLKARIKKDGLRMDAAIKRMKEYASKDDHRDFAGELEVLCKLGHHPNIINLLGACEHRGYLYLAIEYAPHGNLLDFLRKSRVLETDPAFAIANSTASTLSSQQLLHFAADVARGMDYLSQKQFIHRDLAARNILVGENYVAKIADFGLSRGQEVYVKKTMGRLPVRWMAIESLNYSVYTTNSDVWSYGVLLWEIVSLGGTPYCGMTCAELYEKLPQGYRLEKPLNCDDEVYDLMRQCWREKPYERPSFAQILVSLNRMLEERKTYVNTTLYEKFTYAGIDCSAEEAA

Row | SMILES | pIC50 (endogenous Tie2 receptor) | pIC50 [1]
1 | Cc1ccc(NC(=O)c2cc(-n3ccnc3C)cc(C(F)(F)F)c2)cc1-n1ccn2nc(-c3cccnc3)cc12 [Example 40, 3-(2-Methyl-1H-imidazol-1-yl)-N-{4-methyl-3-[6-(pyridin-3-yl)-1H-imidazo[1,2-b]pyrazol-1-yl]-phenyl}-5-(trifluoromethyl)benzamide] | 8.64 | 9.30
2 | Cc1ccc(NC(=O)c2cc(-n3ccnc3C)cc(S(F)(F)(F)(F)F)c2)cc1-n1ccn2nc(-c3cccnc3)cc12 [Example 16, 3-(2-Methyl-1H-imidazol-1-yl)-N-{4-methyl-3-[6-(pyridin-3-yl)-1H-imidazo[1,2-b]pyrazol-1-yl]-phenyl}-5-(pentafluoro-λ^6-sulphanyl)benzamide] | 8.49 | 9.15
3 | Cc1ccc(NC(=O)c2cc(N3CCN(C)CC3)cc(S(F)(F)(F)(F)F)c2)cc1-n1ccn2nc(-c3cn[nH]c3)cc12 [Example 2, 3-(4-Methylpiperazin-1-yl)-N-{4-methyl-3-[6-(1H-pyrazol-4-yl)-1H-imidazo[1,2-b]pyrazol-1-yl]-phenyl}-5-(pentafluoro-λ^6-sulphanyl)benzamide] | 8.12 | 8.22
4 | COCc1cc(C(=O)Nc2cc(-n3ccn4nc(-c5cccnc5)cc34)c(C)cc2C)cc(S(F)(F)(F)(F)F)c1 [Example 112, N-{2,4-Dimethyl-5-[6-(pyridin-3-yl)-1H-imidazo[1,2-b]pyrazol-1-yl]phenyl}-3-(methoxymethyl)-5-(pentafluoro-λ^6-sulphanyl)benzamide] | 8.85 | 9.15
5 | Cc1cc(F)c(NC(=O)c2cc(C#N)cc(S(F)(F)(F)(F)F)c2)cc1-n1ccn2nc(-c3cccnc3)cc12 [Example 75, 3-Cyano-N-{2-fluoro-4-methyl-5-[6-(pyridin-3-yl)-1H-imidazo[1,2-b]pyrazol-1-yl]phenyl}-5-(pentafluoro-λ^6-sulphanyl)benzamide] | 8.77 | 9.30
6 | Cc1ccc(NC(=O)c2cc(-n3ccnc3C)cc(C(F)(F)F)c2)cc1-n1ccn2nc(-c3cn[nH]c3)cc12 [Example 6, 3-(2-Methyl-1H-imidazol-1-yl)-N-{4-methyl-3-[6-(1H-pyrazol-4-yl)-1H-imidazo[1,2-b]pyrazol-1-yl]phenyl}-5-(trifluoromethyl)benzamide] | 7.77 | 8.30
7 | Cc1ccc(NC(=O)c2cc(C(C)(C)O)cc(S(F)(F)(F)(F)F)c2)cc1-n1ccn2nc(-c3cn[nH]c3)cc12 [Example 4, 3-(2-Hydroxypropan-2-yl)-N-{4-methyl-3-[6-(1H-pyrazol-4-yl)-1H-imidazo[1,2-b]pyrazol-1-yl]-phenyl}-5-(pentafluoro-λ^6-sulphanyl)benzamide] | 8.33 | 9.22
8 | Cc1ccc(NC(=O)c2cc(C#N)cc(S(F)(F)(F)(F)F)c2)cc1-n1ccn2nc(-c3cccnc3)cc12 [Example 28, 3-Cyano-N-{4-methyl-3-[6-(pyridin-3-yl)-1H-imidazo[1,2-b]pyrazol-1-yl]phenyl}-5-(pentafluoro-λ^6-sulphanyl)benzamide] | 8.44 | 8.68
9 | Cc1ccc(-n2ccn3nc(-c4cccnc4)cc23)cc1NC(=O)c1cc(C#N)cc(S(F)(F)(F)(F)F)c1 [Example 77] | 8.06 | 7.89
10 | Cc1ccc(NC(=O)c2cc(N3CCN(C)CC3)cc(S(F)(F)(F)(F)F)c2)cc1-n1ccn2nc(-c3cccnc3)cc12 [Example 18, 3-(4-Methylpiperazin-1-yl)-N-{4-methyl-3-[6-(pyridin-3-yl)-1H-imidazo[1,2-b]pyrazol-1-yl]-phenyl}-5-(pentafluoro-λ^6-sulphanyl)benzamide] | 7.96 | 9.15
11 | Cc1cc(C)c(-n2ccn3nc(-c4cccnc4)cc23)cc1NC(=O)c1cc(C#N)nc(C(C)(C)C)c1 [Example 116, 2-tert-Butyl-6-cyano-N-{2,4-dimethyl-5-[6-(pyridin-3-yl)-1H-imidazo[1,2-b]pyrazol-1-yl]phenyl}-isonicotinamide] | 8.54 | 9.30
